The values that follow come from patent US11041212B2, “ABCA1 downregulation in prostate cancer” (THE CLEVELAND CLINIC FOUNDATION, priority 2013, dated 2021).

Molecules are shown by their SMILES.

What all share (assay type): cell-based, human
One experiment concerns ABCA1 transcription. The experiment is described as follows: ABCA1 mRNA expression by realtime RT-PCR in LNCaP cells. Particulars: 10 μM T0901317 24 hours, 5 μM 5-aza-2′-deoxycytidine 7 days, or combination, vs mock treated. As to the method:
PrEC (Lonza, Walkersville, Md.) was cultured in PrEGM according to the manufacturer's instructions. LNCaP and DU 145 (ATCC, Manassas, Va.) were cultured in RPMI 1640 supplemented with 10% FBS. All three cell lines were obtained directly from the cell banks, and the identities of the cell lines were verified per the cell banks' protocols. […] Louis, Mo.) for 24 hours or 5 μM 5-aza-2′-deoxycytidine (Sigma, St. Louis, Mo.) for 7 days, or a combination of the two compounds. ABCA1 promoter (−1132 to +112 relative to the transcription start site) was amplified by PCR and subcloned into the pGL4.20 (Promega, Madison, Wis.). Methylated ABCA1 promoter was in vitro DNA methylated using SssI (NEB, Ipswich, Mass.) and ligated into pGL4.20 prior to transfection. The reporter construct was co-transfected with pGL 4.74 vector into DU 145 cells using Nucleofection (Lonza, Walkersville, Md.). Reporter luciferase activity was measured and normalized to control Renilla luciferase activity for each sample. The mean±SEM from triplicate experiments for each experimental group was plotted for comparisons. […] Expression of ABCA1 and GAPDH mRNA was measured by realtime RT-PCR as previously described (Yan et al.). The relative fold change in expression was calculated using the 2^−ΔΔCT method by normalizing to GAPDH mRNA expression in each sample and compared to LNCaP mock treated cells. […]

Experiment [1] deals with LNCaP cells. The experiment is described as follows: Total cellular cholesterol content in LNCaP cells. The note with it: single agent. As to the method:
(§1) PrEC (Lonza, Walkersville, Md.) was cultured in PrEGM according to the manufacturer's instructions. LNCaP and DU 145 (ATCC, Manassas, Va.) were cultured in RPMI 1640 supplemented with 10% FBS. All three cell lines were obtained directly from the cell banks, and the identities of the cell lines were verified per the cell banks' protocols. Cells were treated with 10 μM T0901317 (Sigma, St. Louis, Mo.) for 24 hours or 5 μM 5-aza-2′-deoxycytidine (Sigma, St. Louis, Mo.) for 7 days, or a combination of the two compounds. ABCA1 promoter (−1132 to +112 relative to the transcription start site) was amplified by PCR and subcloned into the pGL4.20 (Promega, Madison, Wis.). Methylated ABCA1 promoter was in vitro DNA methylated using SssI (NEB, Ipswich, Mass.) and ligated into pGL4.20 prior to transfection. […] Reporter luciferase activity was measured and normalized to control Renilla luciferase activity for each sample. […] Biochemical quantification of intracellular cholesterol was performed as previously described. […] At the end of this chase period, the radioactivity in the medium and cells was determined by liquid scintillation counting, and the percent efflux was calculated as 100×(medium dpm)/(medium dpm+cell dpm). Percent efflux to acceptors was calculated as (percent efflux to acceptor)-(percent efflux to no acceptor). […]

Experiment [2] relates to ABCA1 promoter. The experiment in a line: Methylation-specific PCR (MSP) of the ABCA1 promoter in LNCaP cells. Particulars: 5 μM for 7 days.
Procedure: Bisulfite sequencing and methylation-specific PCR (MSP) of the ABCA1 promoter was performed as previously described (Yan et al., PLoS ONE. 2011; 6(6):e20628 (2011). See Table 1 for a list of the primers used.
The test system of experiment [3] is LNCaP cells. The experiment is described as follows: Cellular [3H]-cholesterol efflux to acceptors in LNCaP cells. The note with it: for cholesterol efflux to APOA1: acceptor 10 μg/mL APOA1, 4 hours chase; for cholesterol efflux to HDL: acceptor 100 μg/mL HDL, 4 hours chase. As to the method: PrEC (Lonza, Walkersville, Md.) was cultured in PrEGM according to the manufacturer's instructions. LNCaP and DU 145 (ATCC, Manassas, Va.) were cultured in RPMI 1640 supplemented with 10% FBS. All three cell lines were obtained directly from the cell banks, and the identities of the cell lines were verified per the cell banks' protocols. Cells were treated with 10 μM T0901317 (Sigma, St. Louis, Mo.) for 24 hours or 5 μM 5-aza-2′-deoxycytidine (Sigma, St. Louis, Mo.) for 7 days, or a combination of the two compounds. ABCA1 promoter (−1132 to +112 relative to the transcription start site) was amplified by PCR and subcloned into the pGL4.20 (Promega, Madison, Wis.). Methylated ABCA1 promoter was in vitro DNA methylated using SssI (NEB, Ipswich, Mass.) and ligated into pGL4.20 prior to transfection. The reporter construct was co-transfected with pGL 4.74 vector into DU 145 cells using Nucleofection (Lonza, Walkersville, Md.). Reporter luciferase activity was measured and normalized to control Renilla luciferase activity for each sample. The mean±SEM from triplicate experiments for each experimental group was plotted for comparisons. The different groups were compared using one way ANOVA with Bonferroni's multiple comparison test. For filipin staining, LNCaP and DU 145 cells were grown on glass coverslips, fixed in 3% paraformaldehyde, and stained with 50 μg/mL filipin (Sigma, St. Louis, Mo.). Images were acquired using QCapturePro software (Qlmaging, Surrey, Canada) at the designated magnifications and fixed aperture and exposure time for both cell lines. Biochemical quantification of intracellular cholesterol was performed as previously described. Robinet et al., J Lipid Res. 51(11):3364-9 (2010). The different groups were compared using one way ANOVA with Bonferroni correction. For analysis of cholesterol efflux, cells were labeled with 0.5 μCi/mL [^3H]-cholesterol in RPMI containing 1% FBS for 16 hours at 37° C. After labeling, cells were chased for 4 hours at 37° C. in RPMI with or without acceptors (10 μg/mL APOA1 or 100 μg/mL HDL). At the end of this chase period, the radioactivity in the medium and cells was determined by liquid scintillation counting, and the percent efflux was calculated as 100×(medium dpm)/(medium dpm+cell dpm). Percent efflux to acceptors was calculated as (percent efflux to acceptor)-(percent efflux to no acceptor). LNCaP treatment groups were compared to the mock treated sample using one way ANOVA with Dunnett's correction. Unpaired t test with Welch's correction was used to compare the T0901317-treated with the mock treated DU 145 cells.

Experiment [4] has as its system ABCA1 promoter. The experiment in a line: ABCA1 promoter/luciferase reporter assay in DU 145 cells. The note with it: 10 μM, 24 hours. As to the method:
PrEC (Lonza, Walkersville, Md.) was cultured in PrEGM according to the manufacturer's instructions. LNCaP and DU 145 (ATCC, Manassas, Va.) were cultured in RPMI 1640 supplemented with 10% FBS. All three cell lines were obtained directly from the cell banks, and the identities of the cell lines were verified per the cell banks' protocols. Cells were treated with 10 μM T0901317 (Sigma, St. Louis, Mo.) for 24 hours or 5 μM 5-aza-2′-deoxycytidine (Sigma, St. Louis, Mo.) for 7 days, or a combination of the two compounds. ABCA1 promoter (−1132 to +112 relative to the transcription start site) was amplified by PCR and subcloned into the pGL4.20 (Promega, Madison, Wis.). Methylated ABCA1 promoter was in vitro DNA methylated using SssI (NEB, Ipswich, Mass.) and ligated into pGL4.20 prior to transfection. The reporter construct was co-transfected with pGL 4.74 vector into DU 145 cells using Nucleofection (Lonza, Walkersville, Md.). Reporter luciferase activity was measured and normalized to control Renilla luciferase activity for each sample. The mean±SEM from triplicate experiments for each experimental group was plotted for comparisons. The different groups were compared using one way ANOVA with Bonferroni's multiple comparison test.

Experiment [5] has as its system DU 145 cells. The experiment is described as follows: Total cellular cholesterol content in DU 145 cells. The note with it: 10 μM T0901317. As to the method:
as §1

Experiment [6] has as its system DU 145 cells. The experiment in a line: Cellular [3H]-cholesterol efflux to acceptors in DU 145 cells. On the procedure: as §1

For the compound `Nc1ncn([C@H]2C[C@H](O)[C@@H](CO)O2)c(=O)n1` [5-aza-2′-deoxycytidine], in the experiment with ABCA1 transcription, the “ABCA1 transcription (mRNA expression)” value is on record as “did not strongly induce ABCA1 transcription”. Also, the “intracellular cholesterol (change vs untreated)” value in the experiment with LNCaP cells [1] is on record as “did not decrease significantly”. For the same compound, the “demethylation of ABCA1 promoter” value in the experiment with ABCA1 promoter [2] is “confirmed demethylation of ABCA1 promoter”. Moreover, in the experiment on LNCaP cells [3], the “cholesterol efflux to APOA1” value was “did not result in robust increases in cholesterol efflux” and the “cholesterol efflux to HDL” value is listed as “same overall trend”.

Take `O=S(=O)(c1ccccc1)N(CC(F)(F)F)c1ccc(C(O)(C(F)(F)F)C(F)(F)F)cc1` [T0901317]: the “ABCA1 transcription (mRNA expression)” value in the experiment with ABCA1 transcription is reported as “only modestly induced above baseline”. In addition, in the experiment with LNCaP cells [1], the “intracellular cholesterol (change vs untreated)” value is “did not decrease significantly”. Moreover, the “luciferase reporter activity from methylated ABCA1 promoter” value with ABCA1 promoter [4] (SssI methylated promoter) is reported as “not induced”. The “luciferase reporter expression from unmethylated ABCA1 promoter” value in the experiment with ABCA1 promoter [4] (unmethylated promoter) is “significant induction of reporter expression”. Further, the “intracellular cholesterol (change vs mock)” value in the experiment on DU 145 cells [5] is listed as “decreased intracellular cholesterol”. Besides, the “cholesterol efflux to APOA1” value with DU 145 cells [6] (acceptor 10 μg/mL APOA1, 10 μM T0901317) is given as “significant increase in cholesterol efflux to APOA1”; in the experiment with LNCaP cells [3], “did not result in robust increases in cholesterol efflux”. Moreover, the “cholesterol efflux to HDL” value with DU 145 cells [6] (acceptor 100 μg/mL HDL, 10 μM T0901317) is recorded as “small, but statistically significant increase in cholesterol efflux to HDL”; in the experiment on LNCaP cells [3], “same overall trend”.
